Reference: PubChem BioAssay AID264 (DTP/NCI, 2004)
“And” between values parts separate entries of the source, which are not always exact repeats. Equal entries are not always repeated. Results filed as inconclusive are left out.

System: nude mice, LX-1 lung xenograft intrarenal, tumor weight T/C
Experiment: NCI In Vivo Anticancer Drug Screen. Data for tumor model Human Lung LX-1 Xenograft (intrarenal inoculation) in NU/NU Swiss (nude) mice
Settings: endpoint: mean tumor weight change, higher = larger tumour
Procedure, shortened: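 Compound-treated mice carrying transplanted tumors were compared with vehicle-treated controls. Tumor size was the measured end point, and the value is the treated-group measurement divided by the control-group measurement (T/C).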

[1] = dose: 12.5 mg/kg/injection, schedule: Q01DX010 (sc), vehicle: saline with Tween-80
[2] = dose: 25.0 mg/kg/injection, schedule: Q01DX010 (sc), vehicle: saline with Tween-80
[3] = dose: 200.0 mg/kg/injection, schedule: Q01DX010 (sc), vehicle: saline with Tween-80
[4] = dose: 400.0 mg/kg/injection, schedule: Q01DX010 (sc), vehicle: saline with Tween-80
[5] = dose: 100.0 mg/kg/injection, schedule: Q01DX010 (sc), vehicle: saline with Tween-80
[6] = dose: 800.0 mg/kg/injection, schedule: Q01DX010 (sc), vehicle: saline with Tween-80
[7] = dose: 100.0 mg/kg/injection, schedule: Q01DX010 (sc), vehicle: Klucel (hydroxypropylcellulose) (HPC)
[8] = dose: 2.0 mg/kg/injection, schedule: Q04DX003 (sc), vehicle: saline
[9] = dose: 0.25 mg/kg/injection, schedule: Q01DX010 (sc), vehicle: saline

## C/C(=N/NC(N)=S)c1ccc2ccccc2c1
[1]
  T/C: 63 % of control
[2]
  T/C: 42 % of control
[3]
  T/C: 61 % of control
[4]
  T/C: 39 % of control

## Cc1cc(N2C(=O)CCSC2=S)ccc1Cl
dose: 75.0 mg/kg/injection, schedule: Q04DX003 (sc), vehicle: Klucel (hydroxypropylcellulose) (HPC)
  T/C: 60 % of control
dose: 150.0 mg/kg/injection, schedule: Q04DX003 (sc), vehicle: Klucel (hydroxypropylcellulose) (HPC)
  T/C: 111 % of control
dose: 300.0 mg/kg/injection, schedule: Q04DX003 (sc), vehicle: Klucel (hydroxypropylcellulose) (HPC)
  T/C: 62 % of control
dose: 600.0 mg/kg/injection, schedule: Q04DX003 (sc), vehicle: Klucel (hydroxypropylcellulose) (HPC)
  T/C: 75 % of control

## CCOC(=O)c1ccc(NC(=O)Nc2nccs2)cc1
[5]
  T/C: 99 % of control
[3]
  T/C: 107 % of control
[4]
  T/C: 92 % of control
[6]
  T/C: 66 % of control

## O=c1ssc(=Nc2ccccc2)n1-c1ccccc1
[7]
  T/C: 77 % of control
dose: 400.0 mg/kg/injection, schedule: Q01DX010 (sc), vehicle: Klucel (hydroxypropylcellulose) (HPC)
  T/C: 97 % of control

## CO[C@H]1C[C@](C)(O)Cc2cc3c(c(O)c21)C(=O)c1c(O)cc2c(c1C3=O)O[C@@H]1O[C@@]2(C)[C@H](O)[C@@H](N(C)C)[C@@H]1O
dose: 3.12 mg/kg/injection, schedule: Q01DX010 (sc), vehicle: other
  T/C: 68 % of control
dose: 6.25 mg/kg/injection, schedule: Q01DX010 (sc), vehicle: other
  T/C: 63 % of control and 70 % of control
dose: 12.5 mg/kg/injection, schedule: Q01DX010 (sc), vehicle: other
  T/C: 23 % of control

## C[n+]1cccc(NC(=O)c2ccc(NC(=O)C34CCC(C(=O)Nc5ccc(C(=O)Nc6ccc[n+](C)c6)cc5)(CC3)CC4)cc2)c1
dose: 12.5 mg/kg/injection, schedule: Q04DX003 (sc), vehicle: saline with Tween-80
  T/C: 103 % of control
dose: 25.0 mg/kg/injection, schedule: Q04DX003 (sc), vehicle: saline with Tween-80
  T/C: 76 % of control
dose: 50.0 mg/kg/injection, schedule: Q04DX003 (sc), vehicle: saline with Tween-80
  T/C: 53 % of control

## O=C1CC2(C(=O)N1CN1CCCCC1)c1ccccc1-c1ccccc12
dose: 200.0 mg/kg/injection, schedule: Q04DX003 (sc), vehicle: Klucel (hydroxypropylcellulose) (HPC)
  T/C: 224 % of control
dose: 400.0 mg/kg/injection, schedule: Q04DX003 (sc), vehicle: Klucel (hydroxypropylcellulose) (HPC)
  T/C: 170 % of control

## CCOC(=O)Nc1cc2c(c(N)n1)N=C(CN(C)c1ccccc1)CN2
dose: 12.5 mg/kg/injection, schedule: Q01DX010 (sc), vehicle: Klucel (hydroxypropylcellulose) (HPC)
  T/C: 166 % of control
dose: 25.0 mg/kg/injection, schedule: Q01DX010 (sc), vehicle: Klucel (hydroxypropylcellulose) (HPC)
  T/C: 186 % of control
[7]
  T/C: 103 % of control

## N[C@@H](Cc1ccc(N(CCCl)CCCl)cc1)C(=O)O
dose: 1.0 mg/kg/injection, schedule: Q01DX010 (sc), vehicle: saline
  T/C: 107 % of control

## O=C1C(NCCO)=C(N2CC2)C(=O)C(NCCO)=C1N1CC1
dose: 0.5 mg/kg/injection, schedule: Q04DX003 (ip), vehicle: saline
  T/C: 117 % of control
dose: 1.5 mg/kg/injection, schedule: Q04DX003 (sc), vehicle: suspension in saline
  T/C: 203 % of control
dose: 2.0 mg/kg/injection, schedule: Q04DX003 (ip), vehicle: saline
  T/C: 61 % of control
dose: 4.0 mg/kg/injection, schedule: Q04DX003 (ip), vehicle: saline
  T/C: 77 % of control

## C/C=C(\C)c1cc(=O)c2c(C)cc3c(c2o1)C(=O)c1c(O)c(C2CC(C)(N(C)C)C(O)C(C)O2)cc(C2CC(N(C)C)C(O)C(C)O2)c1C3=O (stereo unspecified)
[8]
  T/C: 76 % of control
dose: 4.0 mg/kg/injection, schedule: Q04DX003 (sc), vehicle: saline
  T/C: 89 % of control
dose: 8.0 mg/kg/injection, schedule: Q04DX003 (sc), vehicle: saline
  T/C: 80 % of control
dose: 16.0 mg/kg/injection, schedule: Q04DX003 (sc), vehicle: saline
  T/C: 35 % of control

## CC1CN1P1(N2CC2C)=NP(N2CC2C)(N2CC2C)=NP(N2CC2C)(N2CC2C)=N1 (stereo unspecified)
dose: 50.0 mg/kg/injection, schedule: Q01DX010 (sc), vehicle: saline
  T/C: 47 % of control and 60 % of control and 67 % of control
dose: 100.0 mg/kg/injection, schedule: Q01DX010 (sc), vehicle: saline
  T/C: 14 % of control and 15 % of control and 25 % of control

## CCc1ncnc2cc(OCC3CO3)c(OC)cc12 (stereo unspecified)
dose: 25.0 mg/kg/injection, schedule: Q04DX003 (sc), vehicle: suspension in saline
  T/C: 53 % of control
dose: 50.0 mg/kg/injection, schedule: Q04DX003 (sc), vehicle: suspension in saline
  T/C: 64 % of control
dose: 200.0 mg/kg/injection, schedule: Q04DX003 (sc), vehicle: suspension in saline
  T/C: 24 % of control

## CO[C@H](C(=O)[C@@H](O)[C@@H](C)O)[C@@H]1Cc2cc3cc(OC4CC(OC5CC(O)C(O)C(C)O5)C(O)C(C)O4)c(C)c(O)c3c(O)c2C(=O)[C@H]1OC1CC(OC2CC(OC3CC(C)(O)C(O)C(C)O3)C(O)C(C)O2)C(O)C(C)O1 (stereo partly specified)
[9]
  T/C: 120 % of control
dose: 0.25 mg/kg/injection, schedule: Q04DX003 (sc), vehicle: saline
  T/C: 76 % of control
dose: 0.5 mg/kg/injection, schedule: Q04DX003 (sc), vehicle: saline
  T/C: 87 % of control
dose: 0.75 mg/kg/injection, schedule: Q04DX003 (sc), vehicle: saline
  T/C: 101 % of control
dose: 1.0 mg/kg/injection, schedule: Q04DX003 (sc), vehicle: saline
  T/C: 96 % of control
dose: 1.5 mg/kg/injection, schedule: Q04DX003 (sc), vehicle: saline
  T/C: 78 % of control
dose: 2.0 mg/kg/injection, schedule: Q01DX010 (sc), vehicle: saline
  T/C: -51 % of control
[8]
  T/C: 20 % of control
dose: 3.0 mg/kg/injection, schedule: Q04DX003 (sc), vehicle: saline
  T/C: 40 % of control

## C=CC(=O)N1CN(C(=O)C=C)CN(C(=O)C=C)C1
dose: 6.25 mg/kg/injection, schedule: Q01DX010 (sc), vehicle: saline with Tween-80
  T/C: 92 % of control
[1]
  T/C: 110 % of control
[2]
  T/C: 67 % of control

## CO[C@H]1C[C@@H]2CC[C@@H](C)[C@@](O)(O2)C(=O)C(=O)N2CCCC[C@H]2C(=O)O[C@H]([C@H](C)C[C@@H]2CC[C@@H](O)[C@H](OC)C2)CC(=O)[C@H](C)C=C(C)[C@@H](O)[C@@H](OC)C(=O)[C@H](C)C[C@H](C)/C=C/C=C/C=C1C
[5]
  T/C: 72 % of control
[3]
  T/C: 47 % of control
[4]
  T/C: 37 % of control
[6]
  T/C: 69 % of control

## O=NN(CCF)C(=O)NC1CCCCC1
dose: 6.25 mg/kg/injection, schedule: Q04DX003 (sc), vehicle: Klucel (hydroxypropylcellulose) (HPC)
  T/C: 66 % of control
dose: 12.5 mg/kg/injection, schedule: Q04DX003 (sc), vehicle: Klucel (hydroxypropylcellulose) (HPC)
  T/C: 39 % of control

## CC[C@]1(O)C[C@H]2CN(CCc3c([nH]c4ccccc34)[C@@](C(=O)OC)(c3cc4c(cc3OC)N(C=O)[C@H]3[C@@](O)(C(=O)OC)[C@H](OC(C)=O)[C@]5(CC)C=CCN6CC[C@]43[C@@H]65)C2)C1
dose: 0.13 mg/kg/injection, schedule: Q01DX010 (sc), vehicle: saline
  T/C: 69 % of control
[9]
  T/C: 102 % of control
dose: 0.5 mg/kg/injection, schedule: Q01DX010 (sc), vehicle: saline
  T/C: 1 % of control

## CC1(C)COCN1COCCOCN1COCC1(C)C
dose: 200.0 mg/kg/injection, schedule: Q04DX003 (sc), vehicle: saline
  T/C: 169 % of control
dose: 400.0 mg/kg/injection, schedule: Q04DX003 (sc), vehicle: saline
  T/C: 191 % of control

## O=C1c2ccccc2C(=O)c2c3c(cc(NCCNCCO)c21)N(CCO)CCN3
dose: 200.0 mg/kg/injection, schedule: Q04DX003 (sc), vehicle: DMSO
  T/C: 122 % of control
dose: 400.0 mg/kg/injection, schedule: Q04DX003 (sc), vehicle: DMSO
  T/C: 86 % of control
dose: 800.0 mg/kg/injection, schedule: Q04DX003 (sc), vehicle: DMSO
  T/C: 83 % of control

## O=c1ncccn1[C@@H]1O[C@H](CO)[C@H](O)C1O (stereo partly specified)
dose: 300.0 mg/kg/injection, schedule: Q04DX003 (sc), vehicle: saline
  T/C: 100 % of control
dose: 600.0 mg/kg/injection, schedule: Q04DX003 (sc), vehicle: saline
  T/C: 56 % of control
dose: 1200.0 mg/kg/injection, schedule: Q04DX003 (sc), vehicle: saline
  T/C: 55 % of control
dose: 2400.0 mg/kg/injection, schedule: Q04DX003 (sc), vehicle: saline
  T/C: 47 % of control

## O=C(O)c1ccc(C(=O)O)c(C(=O)O)c1.[NH-]C1CCCCC1[NH-].[Pt+2]
dose: 3.12 mg/kg/injection, schedule: Q01DX010 (sc), vehicle: sodium bicarbonate
  T/C: 101 % of control
dose: 6.25 mg/kg/injection, schedule: Q01DX010 (sc), vehicle: sodium bicarbonate
  T/C: 74 % of control
